The values below come from BindingDB's records for doi:10.1016/j.bmc.2013.10.054 (Punjabi University, 2014).

By IC50 is commonly meant the midpoint of a concentration-inhibition curve.

The test deals with T1, P2X purinoceptor 7 (Homo sapiens, UniProt Q99572).
T1 sequence (Q99572 whole entry): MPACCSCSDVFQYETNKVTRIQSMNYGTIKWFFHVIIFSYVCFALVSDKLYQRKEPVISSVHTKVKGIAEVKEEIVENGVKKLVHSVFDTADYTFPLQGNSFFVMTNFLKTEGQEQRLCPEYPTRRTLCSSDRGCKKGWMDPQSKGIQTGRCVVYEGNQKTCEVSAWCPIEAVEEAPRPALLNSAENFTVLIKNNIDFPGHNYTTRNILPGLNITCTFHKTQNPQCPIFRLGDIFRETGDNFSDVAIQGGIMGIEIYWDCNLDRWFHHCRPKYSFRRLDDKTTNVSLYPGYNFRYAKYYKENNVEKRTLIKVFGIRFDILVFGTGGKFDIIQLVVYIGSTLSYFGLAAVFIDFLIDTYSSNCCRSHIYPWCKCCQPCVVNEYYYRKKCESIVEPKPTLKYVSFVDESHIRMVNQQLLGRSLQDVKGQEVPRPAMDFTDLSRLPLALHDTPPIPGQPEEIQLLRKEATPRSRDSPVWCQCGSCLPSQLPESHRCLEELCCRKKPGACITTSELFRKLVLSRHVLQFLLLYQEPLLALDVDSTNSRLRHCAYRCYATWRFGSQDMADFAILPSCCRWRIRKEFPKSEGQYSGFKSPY
Nature of the test: Antagonist activity at P2X7 receptor (unknown origin).

As for `O=C(Cn1cc(O)n(-c2ccccc2)c1=O)NCc1ccc(F)cc1Cl`, the IC50 was under 1 µM.
